# Assay results from patent publication US20250060368A1, “METHODS OF DETECTING AND TREATING IMMUNOTHERAPY-RESISTANT CANCER” (Washington University, priority 2022, published 2025).
# How the values were obtained:
# B-ALL [1] = details: patients receiving blinatumomab or anti-CD19 CAR T for B-ALL; cited from earlier work
# B-ALL [2] = experiment: Clinical case of B-ALL patient treated with blinatumomab and KTE-X19 (ZUMA-3); format: in vivo, human; details: person with B-ALL, CD19ΔTyr260
# Experimental: A person with B-ALL was treated with chemotherapy followed by 2 cycles of blinatumomab as initial therapy. […] B lymphoblasts. Using targeted RNA sequencing, an in-frame deletion within the extracellular domain of CD19 at […]) was identified (FIG. 6A).
substance,measurement,setting,value
blinatumomab: CD19 bispecific T-cell engager approved for R/R B-ALL,Patients in whom emergence of CD19-negative clones is a cause of relapse,B-ALL [1],10%-20%
same,Clinical response,B-ALL [2],relapsed after the second cycle
